This is an account of results in EP0017970A1, “Novel beta-lactam derivatives and process for production thereof” (SANRAKU-OCEAN CO., LTD., priority 1979, dated 1980).

Converted amounts (≈) assume the structure as drawn.

What all share (experiment): MIC, agar dilution assay
Common to all, as to assay type: cell-based

Experiment [1] relates to Alcaligenes faecalis A 1. Conditions: Alcaligenes faecalis, A1, 20 h, 35°C for 20 hours, read-out: Antibiotic Activity minimum inhibitory concentration. The procedure: (§1) The antibiotic activities shown in Tables 1-1 to 1-9 above were determined in the following manner. The minimum inhibitory concentrations of the compounds of formula (VI-b) in Tables I-1 to 1-8 and the known compounds in Table 1-9 on the various microorganisms shown in the above tables were measured by an agar dilution assay method using a brain heart infusion agar medium "Difco" (a product of Difco Laboratories Inc.). A sample of the test compound was dissolved in sterile distilled water and diluted to prepare a twofold dilution series of the compound solution. In a betri dish of 9 cm in diameter, 1 ml of the compound solution was added to 9 ml of a molten sterile heart infusion agar medium (Difco Laboratories Inc.) at. about 60°C to prepare an agar plate containing the compound. An overnight culture of each test organism indicated in the above table, which was prepared by stationary cultivation in trypto-soy broth (Eiken Chemi. Co., Ltd.) at 35°C for 18 to 20 hours, was diluted with the trypto-soy broth to give approximately 10^8 cells/ml and the diluted inoculum was inoculated in the agar plate. After cultivating the plate at 35°C for 20 hours, the growth of the organism was observed. The minimum concentration of the compound at which no growth of the microorganism was noted was determined, and defined as the minimum inhibitory concentration of the test compound.

The subject of experiment [2] is Klebsiella pneumoniae K-13. To be noted: K13, 35°C for 20 hours, read-out: Antibiotic Activity minimum inhibitory concentration. The procedure:
as §1

Experiment [3] relates to Staphylococcus aureus Russell. To be noted: Staphylococcus aureus, 20 h, 35°C for 20 hours, read-out: Antibiotic Activity minimum inhibitory concentration. The procedure:
as §1

The subject of experiment [4] is Escherichia coli RGN 823. Conditions: RGN823, 20 h, 35°C for 20 hours, read-out: Antibiotic Activity minimum inhibitory concentration. The protocol:
as §1

Experiment [5] deals with Providencia sp. P8. Conditions: Providencia, SP.P8, 20 h, 35°C for 20 hours, read-out: Antibiotic Activity minimum inhibitory concentration. The protocol: as §1
The subject of experiment [6] is Enterobacter aerogenes E19. Conditions: Klebsiella aerogenes, E19, 20 h, 35°C for 20 hours, read-out: Antibiotic Activity minimum inhibitory concentration. The protocol:
as §1

Experiment [7] concerns Proteus mirabilis P6. Conditions: P6, 20 h, 35°C for 20 hours, read-out: Antibiotic Activity minimum inhibitory concentration. The procedure: as §1
Experiment [8] relates to Pseudomonas aeruginosa NCTC10490. To be noted: 35°C for 20 hours, read-out: Antibiotic Activity minimum inhibitory concentration. The procedure: as §1
Experiment [9] relates to Sarcina lutea. To be noted: Micrococcus luteus, 20 h, 35°C for 20 hours, read-out: Antibiotic Activity minimum inhibitory concentration. The protocol: as §1
Experiment [10] concerns Proteus sp. P22. Conditions: 35°C for 20 hours, read-out: Antibiotic Activity minimum inhibitory concentration. The procedure:
as §1

For experiment [11], the system named is Pseudomonas aeruginosa IFO3445. To be noted: 35°C for 20 hours, read-out: Antibiotic Activity minimum inhibitory concentration. The protocol: as §1
Experiment [12] relates to Staphylococcus epidermidis. To be noted: 20 h, 35°C for 20 hours, read-out: Antibiotic Activity minimum inhibitory concentration. The procedure: as §1
Experiment [13] relates to Enterobacter cloacae 45. Conditions: Enterobacter cloacae, 45, 20 h, 35°C for 20 hours, read-out: Antibiotic Activity minimum inhibitory concentration. The procedure:
as §1

In experiment [14] the test system is Serratia marcescens T55. Conditions: Serratia marcescens, T55, 20 h, 35°C for 20 hours, read-out: Antibiotic Activity minimum inhibitory concentration. The procedure:
as §1

In experiment [15] the test system is Bacillus subtilis ATCC 6633. Conditions: Bacillus subtilis, ATCC6633, 20 h, 35°C for 20 hours, read-out: Antibiotic Activity minimum inhibitory concentration. The procedure: as §1
Experiment [16] concerns Citrobacter freundii GN 346. To be noted: GN346, 20 h, 35°C for 20 hours, read-out: Antibiotic Activity minimum inhibitory concentration. The procedure:
as §1

The test system of experiment [17] is Serratia marcescens S18. To be noted: Serratia marcescens, S18, 20 h, 35°C for 20 hours, read-out: Antibiotic Activity minimum inhibitory concentration. The procedure: as §1
Experiment [18] concerns Staphylococcus aureus Smith. Conditions: Staphylococcus aureus, 20 h, 35°C for 20 hours, read-out: Antibiotic Activity minimum inhibitory concentration. The protocol:
as §1

The subject of experiment [19] is Proteus vulgaris GN76. Conditions: 35°C for 20 hours, read-out: Antibiotic Activity minimum inhibitory concentration. The procedure: as §1
For experiment [20], the system named is Comamonas terrigena B-996. To be noted: Comamonas terrigena, B996, 20 h, 35°C for 20 hours, read-out: Antibiotic Activity minimum inhibitory concentration. The protocol: as §1
Experiment [21] relates to Staphylococcus aureus FDA 209P. To be noted: Staphylococcus aureus, FDA209P, 20 h, 35°C for 20 hours, read-out: Antibiotic Activity minimum inhibitory concentration. The protocol: as §1
Experiment [22] has as its system Escherichia coli K-12. Conditions: Escherichia coli, K12, 20 h, 35°C for 20 hours, read-out: Antibiotic Activity minimum inhibitory concentration. The protocol:
as §1

Experiment [23] relates to Enterobacter sp. E8. Conditions: Enterobacter, SP.E8, 20 h, 35°C for 20 hours, read-out: Antibiotic Activity minimum inhibitory concentration. The procedure: as §1
The subject of experiment [24] is Proteus rettgeri P7. Conditions: Providencia rettgeri, P7, 20 h, 35°C for 20 hours, read-out: Antibiotic Activity minimum inhibitory concentration. The protocol:
as §1

Consider `CCC1C(=O)N2C(C(=O)O)=C(Sc3ccncc3)CC12` (centres unmarked) [Table I-1 R1=H], for which the MIC in experiment [1] is less than 0.007 mg/L; in [2], 14.8 mg/L (≈ 51 µM); in experiment [3], less than 0.007 mg/L; in [4], 14.8 mg/L (≈ 51 µM); in experiment [5] it was 0.92 mg/L (≈ 3.17 µM); in [6], 7.4 mg/L (≈ 25.5 µM). Besides, the MIC was 1.8 mg/L (≈ 6.2 µM) in experiment [7]; 0.92 mg/L (≈ 3.17 µM) in experiment [8]; less than 0.007 mg/L in experiment [9]; 29.5 mg/L (≈ 102 µM) in experiment [10]; 0.92 mg/L (≈ 3.17 µM) in experiment [11]; less than 0.007 mg/L in experiment [12]. The MIC in experiment [13] was 29.5 mg/L (≈ 102 µM); in experiment [14], 29.5 mg/L (≈ 102 µM); in experiment [15] it was less than 0.007 mg/L; in [16], 29.5 mg/L (≈ 102 µM); in [17], 29.5 mg/L (≈ 102 µM); in experiment [18] it was less than 0.007 mg/L. Further, the MIC in [19] was 29.5 mg/L (≈ 102 µM); in experiment [20] it was less than 0.007 mg/L; in [21] it was less than 0.007 mg/L; in [22] it was 0.92 mg/L (≈ 3.17 µM); in experiment [23] it was 0.46 mg/L (≈ 1.58 µM); in experiment [24], 1.8 mg/L (≈ 6.2 µM).

As to `CC(C)C1C(=O)N2C(C(=O)O)=C(Sc3ccccn3)CC12` (centres unmarked) [Table I-2 R1=-CH3], the MIC in experiment [1] amounted to 0.2 mg/L (≈ 0.657 µM); in [2], 50 mg/L (≈ 164 µM); in experiment [3], 0.013 mg/L (≈ 0.0427 µM); in [4], 12.5 mg/L (≈ 41.1 µM); in [6] it was 50 mg/L (≈ 164 µM); in experiment [7] it was 6.25 mg/L (≈ 20.5 µM). Further, the MIC is 0.004 mg/L (≈ 0.0131 µM) in experiment [9]; 0.05 mg/L (≈ 0.164 µM) in experiment [12]; greater than 100 mg/L in [13]; 0.05 mg/L (≈ 0.164 µM) in experiment [15]; 50 mg/L (≈ 164 µM) in [16]; 0.013 mg/L (≈ 0.0427 µM) in [18]. Besides, the MIC in experiment [20] stood at 0.007 mg/L (≈ 0.023 µM); in experiment [21], 0.007 mg/L (≈ 0.023 µM); in [22], 12.5 mg/L (≈ 41.1 µM); in experiment [23], 25 mg/L (≈ 82.1 µM).

In the case of `CCC1C(=O)N2C(C(=O)O)=C(Sc3ccccn3)CC12` (centres unmarked) [Table I-2 R1=H], the MIC came to 0.1 mg/L (≈ 0.344 µM) in [1]; 25 mg/L (≈ 86.1 µM) in [2]; 0.012 mg/L (≈ 0.0413 µM) in experiment [3]; 6.25 mg/L (≈ 21.5 µM) in experiment [4]; 25 mg/L (≈ 86.1 µM) in experiment [6]; 3.13 mg/L (≈ 10.8 µM) in experiment [7]. In addition, the MIC in [9] came out at 0.0008 mg/L (≈ 0.00276 µM); in experiment [12] it was 0.012 mg/L (≈ 0.0413 µM); in [13], 50 mg/L (≈ 172 µM); in experiment [15] it was 0.012 mg/L (≈ 0.0413 µM); in [16], 25 mg/L (≈ 86.1 µM); in experiment [18], 0.012 mg/L (≈ 0.0413 µM). Moreover, the MIC in experiment [20] is 0.003 mg/L (≈ 0.0103 µM); in [21], 0.006 mg/L (≈ 0.0207 µM); in [22], 6.25 mg/L (≈ 21.5 µM); in experiment [23], 12.5 mg/L (≈ 43.1 µM).
